Literature values, collected in patent publication US12144813B2, “PLK1 inhibitor in combination with anti-angiogenics for treating metastatic cancer” (CARDIFF ONCOLOGY, INC., priority 2022, dated 2024).
Like-named read-outs stand apart in the source and are kept apart here.

Experiments:
[1] = test system: disseminated model of AML
[2] = test system: cell lines, both from solid as well as hematologic tumors; conditions: large number of cell lines, solid and hematologic tumors
[3] = target: PLK1 (Homo sapiens, UniProt P53350); conditions: panel of 296 kinases, including other PLK members
[4] = test system: cancer cell lines
[5] = test system: patients with advanced/metastatic solid tumors
[6] = test system: xenograft tumor; conditions: well tolerated doses in mice after oral administration
[7] = test system: AML cell lines
[8] = test system: HT29 human colon adenocarcinoma xenografts; conditions: combination with irinotecan
[9] = test system: AML; conditions: combination with LDAC; phase III
[10] = test system: patients with AML who were treatment naïve yet unsuitable for induction therapy; conditions: administered intravenously in combination with LDAC; phase II
[11] = test system: 2nd line patients, bev naïve or prior bev in 1st line; conditions: prior trials

Sequence of PLK1 (P53350 whole entry): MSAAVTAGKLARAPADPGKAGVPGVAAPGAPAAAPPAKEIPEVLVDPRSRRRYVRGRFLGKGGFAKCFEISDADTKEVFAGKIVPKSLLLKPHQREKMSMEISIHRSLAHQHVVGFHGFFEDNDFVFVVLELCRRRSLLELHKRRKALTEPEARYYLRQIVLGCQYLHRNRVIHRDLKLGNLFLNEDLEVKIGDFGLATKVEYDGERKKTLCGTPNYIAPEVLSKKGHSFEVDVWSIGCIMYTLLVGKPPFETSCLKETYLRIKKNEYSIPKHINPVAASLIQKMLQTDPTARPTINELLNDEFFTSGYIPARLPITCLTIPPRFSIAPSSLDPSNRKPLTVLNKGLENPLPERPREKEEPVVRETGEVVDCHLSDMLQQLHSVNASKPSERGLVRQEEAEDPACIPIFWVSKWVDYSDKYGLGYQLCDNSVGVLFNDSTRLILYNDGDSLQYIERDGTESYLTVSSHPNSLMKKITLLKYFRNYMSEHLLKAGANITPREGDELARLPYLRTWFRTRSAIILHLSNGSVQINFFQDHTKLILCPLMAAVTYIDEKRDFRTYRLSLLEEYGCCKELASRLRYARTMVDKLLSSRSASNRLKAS

Compound: CN1CCN(c2ccc(OC(F)(F)F)c(Nc3ncc4c(n3)-c3c(c(C(N)=O)nn3CCO)CC4)c2)CC1 [Onvansertib, 1-(2-hydroxyethyl)-8-{[5-(4-methylpiperazin-1-yl)-2-(trifluoromethoxy)phenyl]amino}-4,5-dihydro-1H-pyrazolo[4,3-h]quinazoline-3-carboxamide]
- Survival of animals ([1]; disseminated model of AML, combination therapy with cytarabine): prolonged survival
- Effect on cytarabine antitumor activity ([1]; disseminated models of AML, with cytarabine): significantly increased
- Potency in proliferation assays [2]: low nanomolar activity
- Specificity for PLK1 [3]: high specificity
- Cell-cycle effect [4]: mitotic cell-cycle arrest followed by apoptosis
- Primary dose-limiting toxicities ([5]; phase I, patients with advanced/metastatic solid tumors): neutropenia and thrombocytopenia
- Recovery from hematologic toxicities ([5]; reversible toxicities): ≤ 3 weeks
- Xenograft tumor growth [6]: inhibits xenograft tumor growth
- Inhibition of cell proliferation [7]: nanomolar concentrations
- Tumor regression compared to each agent alone [8]: enhanced tumor regression

Compound: CC[C@@H]1C(=O)N(C)c2cnc(Nc3ccc(C(=O)N[C@H]4CC[C@H](N5CCN(CC6CC6)CC5)CC4)cc3OC)nc2N1C(C)C [volasertib (BI6727)]
- Benefit of the combination [9]: no benefit
- Risk of severe infections [9]: increased risk of severe infections
- OS compared with LDAC alone [10]: significant increase in OS

Compound: Bevacizumab: anti-angiogenics / angiogenesis inhibitor, also referred to herein as bev
- mOS ([11]; bev naïve patients): 13.9 months
- mPFS ([11]; bev naïve patients): 6.9 months
- mOS ([11]; patients with prior bev): 12.5 months
- mPFS ([11]; patients with prior bev): 6.7 months
